Data taken from US20150297694A1, “CANCER DIAGNOSTIC AND THERAPEUTIC METHOD TARGETING MOLECULES EXPRESSED IN CANCER STEM CELLS” (NIIGATA UNIVERSITY, priority 2012, published 2015).

Test system: PBMC of healthy volunteers (HLA-A*0201 or HLA-A*2601)
Assay: IFN-γ production (ELISA) by DDX3X-derived peptide stimulation of peptide-induced CTL from PBMC
Assay type: cell-based, human
Settings: peptide 20 μg/mL, 24 hours
Description: PBMC (1.5×10^7 cells) were inoculated in a 24-well plate in 1.5×10^6 cells/well (Day 0). Then, three types of DDX3X-derived peptides (final concentration 20 μg/mL each), and IL-7 (final concentration 10 ng/mL) were added to each well, and the cells were cultured at 37° C. in 5% CO2.
The cells were re-stimulated after 1 week (Day 7). For re-stimulation, the PBMC cryopreserved as antigen-presenting cells in Day 0 were thawed, and the three types of DDX3X-derived peptides (final concentration 20 μg/mL each) were added and conjugated at 37° C. for 2 hours after adjusting the cells to 3×10^6 cells/mL or less. This was followed by addition of a mitomycin C [Kyowa Hakko Kirin] solution to make the final concentration 50 μg/mL, and the cells were treated at 37° C. for 45 min. The cells were washed twice with AIM-V, and resuspended in medium to obtain an antigen-presenting cell suspension. After harvesting cells cultured for 1 week, the cells were inoculated in a 24-well plate in 1.2×10^6 cells/well, and the antigen-presenting cell suspension was inoculated with the same number of cells. Finally, IL-7 was added at 10 ng/ml, and the cells were cultured at 37° C. in 5% CO2. After 2 days (Day 9), half of the culture medium was gently removed from each well, and replaced with 40 U/mL of IL-2-containing medium for further culture. The half-volume replacement of the culture medium with 20 U/mL of IL-2-containing medium was repeated in the same fashion every other day (Day 11, Day 13). Re-stimulation was repeated in Day 14 and Day 21 using the same procedure. […]
Twenty-four hours after peptide stimulation, the culture supernatant was gently collected from each well. IFN-γ concentration in each culture supernatant was detected by ELISA, by using an ELISA reagent set (BD OptEIA ELISA set (human IFN-7)(trade name)) according to the manufacturer's protocol after modification. […] Measurements were made with a visible wavelength absorbance microplate reader (VERSAmax(trade name); Molecular Device).

| Sequence | samples showing IFN-γ production (Day 28, samples with A*2601) | samples showing IFN-γ production (Day 21, samples with A*2601) | samples showing IFN-γ production (Day 28, samples with A*0201) |
| --- | --- | --- | --- |
| FVETKKGADSLEDFLYHEGY (listed as Homo sapiens) [DDX3X-20 mer] | one of the five | – | – |
| LEDFLYHEGY (listed as Homo sapiens) [DDX3X-10 mer] | – | two of the five | one of the six |
